Values after ≈ are worked out from the molar mass of the structure shown.
Assays:
[1] = Solubility in aqueous medium at pH 7.4; type: physicochemical; conditions: for solubility: aqueous medium, pH 7.4, aqueous buffer
From the text: In addition, some compounds have an unusually good solubility, for this active ingredient class, in aqueous medium under physiological conditions (Table 2).

[2] = Metabolic stability in rat liver microsomes; type: in vitro ADME; conditions: for Predicted clearance [l/h/kg] Rat: well-stirred model
Description: (§1) Determination of Metabolic Stability in Human and Rat Liver Microsomes
(§2) The incubations were conducted with 2.4 ml of HLM solution (protein content 0.5 mg/ml), 30 μl of the test compound (final concentration 1 μM) and 0.6 ml of the cofactor mixture (═NADPH-generating system composed of 3 IU glucose-6-phosphate dehydrogenase, 14.6 mg glucose-6-phosphate, 1.2 mg NADP) at 37° C. in 100 mM phosphate buffer at pH 7.4. Samples were taken at 6 time points (2-60 min) and precipitated with an equal volume of methanol, and the recovery of the test substances used in the supernatant was determined by LC-MS/MS analysis. The half-life of substance degradation determined therefrom was used to calculate what is called the intrinsic clearance of the substance in the liver microsome preparation. […] In addition, under the assumptions that (i) absorption of the test substance is 100%, and (ii) the first pass is completely reflected by liver microsome metabolism, a maximum oral bioavailability (Fmax) was calculated.

[3] = target: T1, human progesterone receptor A (Homo sapiens, UniProt P06401); assay: Progesterone receptor-antagonistic action in stably transfected SK-N-MC cells with MMTV-LUC reporter (PR-A); type: cell-based; conditions: antagonistic potency against 0.1 nmol/l promegestone, 24 hours, luciferase
T1 construct: expressed in transfected cells; host or cells: SK-N-MC human neuroblastoma cells, stably transfected with pRChPR-A-neo and pMMTV-LUC
T1 sequence (P06401 1-769 isoform P06401-2): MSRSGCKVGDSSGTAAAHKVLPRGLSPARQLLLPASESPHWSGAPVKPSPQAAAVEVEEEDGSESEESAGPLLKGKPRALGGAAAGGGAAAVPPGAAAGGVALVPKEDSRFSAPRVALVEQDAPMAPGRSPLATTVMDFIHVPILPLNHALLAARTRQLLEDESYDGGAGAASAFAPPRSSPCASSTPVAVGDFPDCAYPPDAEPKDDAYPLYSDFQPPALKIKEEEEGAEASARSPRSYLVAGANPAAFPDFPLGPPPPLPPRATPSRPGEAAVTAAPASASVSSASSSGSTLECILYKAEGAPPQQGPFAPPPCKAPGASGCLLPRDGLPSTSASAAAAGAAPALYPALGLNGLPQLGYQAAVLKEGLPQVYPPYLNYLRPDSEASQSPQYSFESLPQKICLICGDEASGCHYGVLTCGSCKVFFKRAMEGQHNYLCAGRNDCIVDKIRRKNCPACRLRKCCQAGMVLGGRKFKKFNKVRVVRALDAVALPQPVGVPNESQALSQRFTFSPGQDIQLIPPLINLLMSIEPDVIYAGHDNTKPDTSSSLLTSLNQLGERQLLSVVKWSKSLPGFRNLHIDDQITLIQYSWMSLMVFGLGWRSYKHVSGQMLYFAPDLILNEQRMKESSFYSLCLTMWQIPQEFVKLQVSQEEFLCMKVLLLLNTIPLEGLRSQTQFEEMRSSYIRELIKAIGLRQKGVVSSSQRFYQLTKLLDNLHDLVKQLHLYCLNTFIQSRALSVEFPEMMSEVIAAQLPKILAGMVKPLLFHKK
Summary of the method: (§3)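 SK-N-MC neuroblastoma cells stably expressing human PR-A or PR-B plus MMTV-LUC reporter, treated 24 h with test compound (0.01 nmol/l–[…]). Antagonist mode used co-treatment with 0.1 nmol/l promegestone; luciferase in lysates read as RLU, expressed as % efficacy and IC50/EC50.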

[4] = target: T2, human progesterone receptor B (Homo sapiens, UniProt P06401); assay: Progesterone receptor-antagonistic action in stably transfected SK-N-MC cells with MMTV-LUC reporter (PR-B); type: cell-based; conditions: antagonistic potency against 0.1 nmol/l promegestone, 24 hours, luciferase
T2 construct: expressed in transfected cells; host or cells: SK-N-MC human neuroblastoma cells, stably transfected with pRChPR-B-neo and pMMTV-LUC
T2 sequence (P06401 1-933): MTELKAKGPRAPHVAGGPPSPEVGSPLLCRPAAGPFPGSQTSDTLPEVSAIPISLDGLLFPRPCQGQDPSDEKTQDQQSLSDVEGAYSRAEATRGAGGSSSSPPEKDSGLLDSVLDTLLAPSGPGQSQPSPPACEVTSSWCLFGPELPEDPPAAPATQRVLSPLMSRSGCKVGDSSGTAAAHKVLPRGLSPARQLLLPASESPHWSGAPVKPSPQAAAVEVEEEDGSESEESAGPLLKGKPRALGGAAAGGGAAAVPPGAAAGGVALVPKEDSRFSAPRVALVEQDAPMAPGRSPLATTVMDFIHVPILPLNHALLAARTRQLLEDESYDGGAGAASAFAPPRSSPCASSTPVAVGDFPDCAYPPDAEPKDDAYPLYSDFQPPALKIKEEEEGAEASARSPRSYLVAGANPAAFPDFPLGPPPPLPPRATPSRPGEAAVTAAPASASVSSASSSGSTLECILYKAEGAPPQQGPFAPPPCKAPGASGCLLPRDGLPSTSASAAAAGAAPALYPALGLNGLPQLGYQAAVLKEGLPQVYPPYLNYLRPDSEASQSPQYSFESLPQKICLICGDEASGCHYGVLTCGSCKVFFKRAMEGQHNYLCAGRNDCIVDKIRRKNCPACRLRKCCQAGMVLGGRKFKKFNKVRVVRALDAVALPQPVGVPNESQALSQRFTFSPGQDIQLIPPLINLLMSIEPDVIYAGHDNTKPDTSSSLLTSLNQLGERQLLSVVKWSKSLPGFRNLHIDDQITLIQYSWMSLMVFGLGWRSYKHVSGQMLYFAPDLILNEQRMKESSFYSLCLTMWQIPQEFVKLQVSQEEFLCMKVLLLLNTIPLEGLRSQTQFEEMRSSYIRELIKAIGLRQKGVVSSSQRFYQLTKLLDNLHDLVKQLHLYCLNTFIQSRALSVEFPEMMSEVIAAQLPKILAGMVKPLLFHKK
Summary of the method: as §3

[5] = Metabolic stability in human liver microsomes; type: in vitro ADME; conditions: for Predicted clearance [l/h/kg] Human: 1 μM, well-stirred model
Description: as §1
Isolated human liver microsomes (HLM) were used to assess the metabolic stability of compounds of general formula I.
as §2

Compound: C[C@]12C[C@H](c3ccc(/C=C/c4ccncc4)cc3)C3=C4CCC(=O)C=C4CC[C@H]3[C@@H]1CC[C@@]2(O)C(F)(F)C(F)(F)F [Example 8, (8S,11R,13S,14S,17S)-17-hydroxy-13-methyl-17-pentafluoroethyl-11-[4-((E)-2-pyridin-4-ylvinyl)phenyl]-1,2,6,7,8,11,12,13,14,15,16,17-dodecahydrocyclopenta[a]phenanthren-3-one]
- solubility [1]: 7 µg/mL (≈ 12.3 µM)
- Predicted Fmax [%] (maximum oral bioavailability) Rat [2]: 92%
- Predicted clearance [l/h/kg] Rat [2]: 0.3 L/h/kg
- IC50 [3]: 0.012 nM
- IC50 [4]: 0.077 nM
- Predicted Fmax [%] (maximum oral bioavailability) Human [5]: 87%
- Predicted clearance [l/h/kg] Human [5]: 0.18 L/h/kg

Compound: Cc1nc(/C=C/c2ccc([C@H]3C[C@@]4(C)[C@@H](CC[C@@]4(O)C(F)(F)C(F)(F)F)[C@@H]4CCC5=CC(=O)CCC5=C43)cc2)cs1 [Example 9, (8S,11R,13S,14S,17S)-17-hydroxy-13-methyl-11-{4-[(E)-2-(2-methylthiazol-4-yl)vinyl]phenyl}-17-pentafluoroethyl-1,2,6,7,8,11,12,13,14,15,16,17-dodecahydrocyclopenta[a]phenanthren-3-one]
- solubility [1]: 8 µg/mL (≈ 13.6 µM)
- Predicted Fmax [%] (maximum oral bioavailability) Rat [2]: 76%
- Predicted clearance [l/h/kg] Rat [2]: 1.0 L/h/kg
- IC50 [3]: 0.055 nM
- IC50 [4]: 0.09 nM
- Predicted Fmax [%] (maximum oral bioavailability) Human [5]: 68%
- Predicted clearance [l/h/kg] Human [5]: 0.43 L/h/kg

Compound: Cc1nc2cc(/C=C/c3ccc([C@H]4C[C@@]5(C)[C@@H](CC[C@@]5(O)C(F)(F)C(F)(F)F)[C@@H]5CCC6=CC(=O)CCC6=C54)cc3)ccc2s1 [Example 10, (8S,11R,13S,14S,17S)-17-hydroxy-13-methyl-11-{4-[(E)-2-(2-methylbenzothiazol-5-yl)vinyl]phenyl}-17-pentafluoroethyl-1,2,6,7,8,11,12,13,14,15,16,17-dodecahydrocyclopenta[a]phenanthren-3-one]
- solubility [1]: 8 µg/mL (≈ 12.5 µM)
- Predicted Fmax [%] (maximum oral bioavailability) Rat [2]: 76%
- Predicted clearance [l/h/kg] Rat [2]: 1.0 L/h/kg
- IC50 [3]: 0.2 nM
- IC50 [4]: 0.86 nM
- Predicted Fmax [%] (maximum oral bioavailability) Human [5]: 73%
- Predicted clearance [l/h/kg] Human [5]: 0.36 L/h/kg

Compound: C[C@]12C[C@H](c3ccc(/C=C/C(=O)O)cc3)C3=C4CCC(=O)C=C4CC[C@H]3[C@@H]1CC[C@@]2(O)C(F)(F)C(F)(F)F [Example 13, (E)-3-[4-((8S,11R,13S,14S,17S)-17-hydroxy-13-methyl-3-oxo-17-pentafluoroethyl-2,3,6,7,8,11,12,13,14,15,16,17-dodecahydro-1H-cyclopenta[a]phenanthren-11-yl)phenyl]acrylic acid]
- solubility (in words) ([1]; aqueous medium under physiological conditions): improved
- solubility [1]: > 179 µg/mL
- Predicted Fmax [%] (maximum oral bioavailability) Rat [2]: 97%
- Predicted clearance [l/h/kg] Rat [2]: 0.1 L/h/kg
- IC50 [3]: 0.1 nM
- IC50 [4]: 0.3 nM
- Predicted Fmax [%] (maximum oral bioavailability) Human [5]: 52%
- Predicted clearance [l/h/kg] Human [5]: 0.63 L/h/kg

Compound: C[C@]12C[C@H](c3ccc(/C=C/C#N)cc3)C3=C4CCC(=O)C=C4CC[C@H]3[C@@H]1CC[C@@]2(O)C(F)(F)C(F)(F)F [Example 14, (E)-3-[4-((8S,11R,13S,14S,17S)-17-hydroxy-13-methyl-3-oxo-17-pentafluoroethyl-2,3,6,7,8,11,12,13,14,15,16,17-dodecahydro-1H-cyclopenta[a]phenanthren-11-yl)phenyl]acrylonitrile]
- solubility [1]: 9 µg/mL (≈ 17.4 µM)
- Predicted Fmax [%] (maximum oral bioavailability) Rat [2]: 75%
- Predicted clearance [l/h/kg] Rat [2]: 1.1 L/h/kg
- IC50 [3]: 0.011 nM
- IC50 [4]: 0.011 nM
- Predicted Fmax [%] (maximum oral bioavailability) Human [5]: 31%
- Predicted clearance [l/h/kg] Human [5]: 0.9 L/h/kg

Compound: CC(=O)/C=C/c1ccc([C@H]2C[C@@]3(C)[C@@H](CC[C@@]3(O)C(F)(F)C(F)(F)F)[C@@H]3CCC4=CC(=O)CCC4=C32)cc1 [Example 16, (8S,11R,13S,14S,17S)-17-hydroxy-13-methyl-11-[4-((E)-3-oxobut-1-enyl)phenyl]-17-pentafluoroethyl-1,2,6,7,8,11,12,13,14,15,16,17-dodecahydrocyclopenta[a]phenanthren-3-one]
- solubility [1]: 10 µg/mL (≈ 18.7 µM)
- Predicted Fmax [%] (maximum oral bioavailability) Rat [2]: 52%
- Predicted clearance [l/h/kg] Rat [2]: 2.0 L/h/kg
- IC50 [3]: 0.1 nM
- IC50 [4]: 0.3 nM
- Predicted Fmax [%] (maximum oral bioavailability) Human [5]: 23%
- Predicted clearance [l/h/kg] Human [5]: 1.02 L/h/kg

Compound: C[C@]12C[C@H](c3cccc(/C=C/c4ccccn4)c3)C3=C4CCC(=O)C=C4CC[C@H]3[C@@H]1CC[C@@]2(O)C(F)(F)C(F)(F)F [Example 21, (8S,11R,13S,14S,17S)-17-hydroxy-13-methyl-17-pentafluoroethyl-11-[3-((E)-2-pyridin-2-ylvinyl)phenyl]-1,2,6,7,8,11,12,13,14,15,16,17-dodecahydrocyclopenta[a]phenanthren-3-one]
- solubility [1]: 7 µg/mL (≈ 12.3 µM)
- Predicted Fmax [%] (maximum oral bioavailability) Rat [2]: 88%
- Predicted clearance [l/h/kg] Rat [2]: 0.5 L/h/kg
- IC50 [3]: 0.9 nM
- IC50 [4]: 1 nM
- Predicted Fmax [%] (maximum oral bioavailability) Human [5]: 48%
- Predicted clearance [l/h/kg] Human [5]: 0.7 L/h/kg
